Results taken from ChEMBL document CHEMBL5512657, “Design, synthesis and evaluation of a pyrazolo[3,4-d]pyrimidine derivative as a novel and potent TGFβ1R1 inhibitor” (Eur J Med Chem, 2024).

How the values were obtained:
[1] = target: T1, TGF-beta receptor type-1 (Mus musculus, UniProt Q64729); assay: Inhibition of ALK5 signaling in mouse NIH3T3 cells transfected with (CAGA)12-luciferase reporter incubated for 18 hrs in presence of TGF-beta1 by dual-luciferase reporter assay; assay type: cell-based
T1 sequence (Q64729 whole entry): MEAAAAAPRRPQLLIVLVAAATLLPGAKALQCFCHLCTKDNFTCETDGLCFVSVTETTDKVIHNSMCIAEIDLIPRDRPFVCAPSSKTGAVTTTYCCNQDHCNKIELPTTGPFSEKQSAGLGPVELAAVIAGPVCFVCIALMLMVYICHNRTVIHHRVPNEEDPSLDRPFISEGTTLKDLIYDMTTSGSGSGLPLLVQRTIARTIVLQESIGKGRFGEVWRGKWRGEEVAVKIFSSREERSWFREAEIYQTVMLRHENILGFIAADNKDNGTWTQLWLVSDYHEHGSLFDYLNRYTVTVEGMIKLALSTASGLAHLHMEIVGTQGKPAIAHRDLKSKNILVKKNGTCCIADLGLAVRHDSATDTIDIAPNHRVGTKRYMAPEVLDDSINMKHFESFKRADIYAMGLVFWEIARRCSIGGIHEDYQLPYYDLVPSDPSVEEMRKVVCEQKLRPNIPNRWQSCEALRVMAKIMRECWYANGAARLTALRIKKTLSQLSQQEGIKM

[2] = target: Voltage-gated inwardly rectifying potassium channel KCNH2 (Homo sapiens, UniProt Q12809); assay: Inhibition of human ERG stably expressed in HEK293 cells by manual patch clamp method; assay type: toxicity, cell-based
[3] = target: T2, TGF-beta receptor type-1 (Homo sapiens, UniProt P36897); assay: Inhibition of TGFbetaR1 (unknown origin)
T2 sequence (P36897 whole entry): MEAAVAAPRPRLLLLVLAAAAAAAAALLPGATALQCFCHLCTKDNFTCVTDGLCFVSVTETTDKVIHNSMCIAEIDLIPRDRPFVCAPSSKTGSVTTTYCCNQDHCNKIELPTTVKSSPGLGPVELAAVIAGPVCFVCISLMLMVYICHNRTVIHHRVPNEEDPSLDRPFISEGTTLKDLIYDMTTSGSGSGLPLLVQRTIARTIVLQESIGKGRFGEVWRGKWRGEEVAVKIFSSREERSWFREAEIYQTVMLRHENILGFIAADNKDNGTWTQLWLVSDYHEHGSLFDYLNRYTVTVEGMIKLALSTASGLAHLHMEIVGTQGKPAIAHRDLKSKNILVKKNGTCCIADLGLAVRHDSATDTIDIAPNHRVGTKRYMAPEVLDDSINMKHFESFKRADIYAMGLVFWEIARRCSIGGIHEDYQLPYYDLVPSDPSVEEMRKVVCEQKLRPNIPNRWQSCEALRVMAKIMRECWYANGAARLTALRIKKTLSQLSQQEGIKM

[4] = target: T2, TGF-beta receptor type-1; assay: Inhibition of ALK5 (unknown origin) incubated for 2 hrs in presence of ATP by ADP-Glo reagent based luminescence plate reader analysis
[5] = test system: PANC-1; assay: cells; conditions: Homo sapiens, PANC-1, 72 h
[6] = test system: HepG2; assay: cells; conditions: Homo sapiens, HepG2, 72 h
[7] = in vitro; conditions: human, BEAS-2B cells
[8] = test system: MV4-11; assay: cells; conditions: Homo sapiens, MV4-11, 72 h
[9] = in vitro; conditions: human, HEK293T cells
[10] = test system: U-251; assay: cells; conditions: Homo sapiens, U-251, 72 h
[11] = test system: 4T1; assay: cells; conditions: Mus musculus, 4T1, 72 h
[12] = test system: Kasumi 1; assay: cells; conditions: Homo sapiens, Kasumi 1, 72 h
[13] = test system: MDA-MB-231; assay: cells; conditions: Homo sapiens, MDA-MB-231, 72 h
[14] = test system: Panc02; assay: cells; conditions: Mus musculus, Panc02, 72 h
[15] = in vitro; conditions: human, L02 cells
[16] = in vitro; conditions: human, MCF-10A cells

Sequence of Voltage-gated inwardly rectifying potassium channel KCNH2 (Q12809 whole entry): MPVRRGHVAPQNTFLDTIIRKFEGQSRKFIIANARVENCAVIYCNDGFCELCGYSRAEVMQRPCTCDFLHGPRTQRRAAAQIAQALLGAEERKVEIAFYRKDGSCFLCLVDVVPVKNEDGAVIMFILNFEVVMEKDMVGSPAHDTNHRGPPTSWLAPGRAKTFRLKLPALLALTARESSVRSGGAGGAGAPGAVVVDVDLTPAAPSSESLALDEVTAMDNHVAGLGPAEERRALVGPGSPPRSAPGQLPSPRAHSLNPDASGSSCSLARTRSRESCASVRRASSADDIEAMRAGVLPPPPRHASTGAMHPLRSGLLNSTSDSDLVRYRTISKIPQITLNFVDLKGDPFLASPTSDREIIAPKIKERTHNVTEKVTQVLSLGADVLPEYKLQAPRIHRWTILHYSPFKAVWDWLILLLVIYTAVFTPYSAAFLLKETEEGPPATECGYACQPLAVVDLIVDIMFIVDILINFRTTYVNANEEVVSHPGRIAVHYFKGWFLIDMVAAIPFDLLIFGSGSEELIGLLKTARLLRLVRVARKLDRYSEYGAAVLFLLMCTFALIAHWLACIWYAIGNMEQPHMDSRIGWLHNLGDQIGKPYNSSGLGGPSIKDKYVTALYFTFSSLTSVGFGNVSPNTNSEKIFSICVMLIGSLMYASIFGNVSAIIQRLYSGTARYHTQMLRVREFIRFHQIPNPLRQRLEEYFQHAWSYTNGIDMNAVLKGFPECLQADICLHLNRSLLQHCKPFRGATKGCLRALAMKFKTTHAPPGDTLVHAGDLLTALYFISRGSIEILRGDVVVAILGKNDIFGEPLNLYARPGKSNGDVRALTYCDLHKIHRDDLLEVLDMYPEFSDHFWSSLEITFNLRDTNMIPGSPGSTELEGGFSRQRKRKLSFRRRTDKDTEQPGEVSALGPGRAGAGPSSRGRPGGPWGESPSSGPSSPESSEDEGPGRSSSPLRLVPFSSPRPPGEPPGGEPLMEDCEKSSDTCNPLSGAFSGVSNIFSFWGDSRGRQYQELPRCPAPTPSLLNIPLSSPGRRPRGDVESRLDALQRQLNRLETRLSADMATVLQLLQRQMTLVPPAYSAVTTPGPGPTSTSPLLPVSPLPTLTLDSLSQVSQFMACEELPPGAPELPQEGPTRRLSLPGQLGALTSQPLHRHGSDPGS

Nc1ncnc2c1c(-c1ccc3[nH]ccc3c1)nn2CCC1CCN(S(=O)(=O)c2cccs2)CC1
EC50 [1]: 607 nM

CC(=O)N1CCC(CCn2nc(-c3ccc4c(c3)OCO4)c3c(N)ncnc32)CC1
EC50 [1]: > 1000 nM

Nc1ncnc2c1c(-c1ccc3[nH]ccc3c1)nn2CCC1CCNCC1
EC50 [1]: > 1000 nM

CC(C)S(=O)(=O)N1CCC(CCn2nc(-c3ccc4[nH]ccc4c3)c3c(N)ncnc32)CC1
EC50 [1]: 131 nM

N#Cc1ccc(S(=O)(=O)N2CCC(CCn3nc(-c4ccc5[nH]ccc5c4)c4c(N)ncnc43)CC2)cc1
EC50 [1]: > 1000 nM

CCS(=O)(=O)N1CCC(CCn2nc(-c3ccc4[nH]ccc4c3)c3c(N)ncnc32)CC1
EC50 [1]: 90.8 nM

CCCCS(=O)(=O)N1CCC(CCn2nc(-c3ccc4[nH]ccc4c3)c3c(N)ncnc32)CC1
EC50 [1]: 176 nM

CC(C)(C)OC(=O)N1CCCC(Cn2nc(-c3ccc4[nH]ccc4c3)c3c(N)ncnc32)C1 (configuration not stated)
EC50 [1]: 689 nM

Nc1ncnc2c1c(-c1ccc3[nH]ccc3c1)nn2CCC1CCN(S(=O)(=O)c2cccnc2)CC1
EC50 [1]: > 1000 nM

CC(=O)N1CCC(CCn2nc(-c3ccc4nccnc4c3)c3c(N)ncnc32)CC1
EC50 [1]: > 1000 nM

CC(C)(C)OC(=O)N1CCC(CCn2nc(-c3ccc4[nH]ccc4c3)c3c(N)ncnc32)CC1
EC50 [1]: 441 nM

CC(C)(C)OC(=O)N1CCC(Cn2nc(-c3ccc4[nH]ccc4c3)c3c(N)ncnc32)CC1
EC50 [1]: 374 nM

COc1ccc(S(=O)(=O)N2CCC(CCn3nc(-c4ccc5[nH]ccc5c4)c4c(N)ncnc43)CC2)c(OC)c1
EC50 [1]: > 1000 nM

CC(=O)N1CCC(CCn2nc(-c3ccc4[nH]ncc4c3)c3c(N)ncnc32)CC1
EC50 [1]: 295 nM

CC(C)(C)OC(=O)N1CCN(CCn2nc(-c3ccc4[nH]ccc4c3)c3c(N)ncnc32)CC1
EC50 [1]: 488 nM

Nc1ncnc2c1c(-c1ccc3[nH]ccc3c1)nn2CCC1CCN(S(=O)(=O)c2cc(Cl)ccc2Cl)CC1
EC50 [1]: > 1000 nM

CC(=O)N1CCC(CCn2nc(-c3ccc4[nH]cc(C)c4c3)c3c(N)ncnc32)CC1
IC50 [2]: 9870 nM
EC50 [1]: 15.3 nM

CC(C)(C)c1ccc(S(=O)(=O)N2CCC(CCn3nc(-c4ccc5[nH]ccc5c4)c4c(N)ncnc43)CC2)cc1
EC50 [1]: > 1000 nM

CC(=O)N1CCC(CCn2nc(-c3ccc4ncccc4c3)c3c(N)ncnc32)CC1
EC50 [1]: > 1000 nM

CC(=O)N1CCC(CCn2nc(-c3ccc4c(ccn4C)c3)c3c(N)ncnc32)CC1
EC50 [1]: 283 nM

CC(=O)N1CCC(CCn2nc(-c3ccc4[nH]c(C)cc4c3)c3c(N)ncnc32)CC1
EC50 [1]: 105 nM

CC(=O)Nc1cccc(-c2nn(CCC3CCN(C(C)=O)CC3)c3ncnc(N)c23)c1
EC50 [1]: > 1000 nM

CC(=O)N1CCC(CCn2nc(-c3ccc4[nH]ccc4c3)c3c(N)ncnc32)CC1
IC50 [2]: 11700 nM
EC50 [1]: 29.6 nM

Nc1ncnc2c1c(-c1ccc3[nH]ccc3c1)nn2-c1ccc2cc[nH]c2c1
EC50 [1]: 525 nM

CC(C)(C)C(=O)N1CCC(CCn2nc(-c3ccc4[nH]ccc4c3)c3c(N)ncnc32)CC1
EC50 [1]: 138 nM

Nc1ncnc2c1c(-c1ccc3[nH]ccc3c1)nn2CCC1CCN(S(=O)(=O)c2ccc(Cl)cc2Cl)CC1
EC50 [1]: > 1000 nM

Nc1ncnc2c1c(-c1ccc3[nH]ccc3c1)nn2CCC1CCN(S(=O)(=O)c2ccccc2F)CC1
EC50 [1]: 339 nM

Cc1cccc(-c2nc(C34CCC(C(N)=O)(CC3)CC4)[nH]c2-c2ccc3c(c2)OCO3)n1
IC50 [3]: 47 nM

Nc1ncnc2c1c(-c1ccc3[nH]ccc3c1)nn2CCC1CCN(S(=O)(=O)c2ccc3ccccc3c2)CC1
EC50 [1]: 971 nM

C#CCCCC(=O)N1CCC(CCn2nc(-c3ccc4[nH]ccc4c3)c3c(N)ncnc32)CC1
EC50 [1]: 465 nM

CC(C)(C)OC(=O)N1CCC(Cn2nc(-c3ccc4[nH]ccc4c3)c3c(N)ncnc32)C1 (configuration not stated)
IC50 [4]: 155 nM
EC50 [1]: 363 nM

Cc1ccc(S(=O)(=O)N2CCC(CCn3nc(-c4ccc5[nH]ccc5c4)c4c(N)ncnc43)CC2)cc1
EC50 [1]: 348 nM

Nc1ncnc2c1c(-c1ccc3[nH]ccc3c1)nn2CCC1CCN(S(=O)(=O)c2cccc(Cl)c2Cl)CC1
EC50 [1]: 848 nM

Nc1ncnc2c1c(-c1ccc3[nH]ccc3c1)nn2CCC1CCN(S(=O)(=O)C2CC2)CC1
EC50 [1]: 105 nM

CCCS(=O)(=O)N1CCC(CCn2nc(-c3ccc4[nH]ccc4c3)c3c(N)ncnc32)CC1
EC50 [1]: 45.9 nM

CC(=O)N1CCC(CCn2nc(-c3ccc4ncsc4c3)c3c(N)ncnc32)CC1
EC50 [1]: 130 nM

CC(C)(C)OC(=O)N1CCC(CCCn2nc(-c3ccc4[nH]ccc4c3)c3c(N)ncnc32)CC1
EC50 [1]: 998 nM

CC(=O)c1nn(CCC2CCN(C(C)=O)CC2)c2ncnc(N)c12
EC50 [1]: 485 nM

CC(=O)N1CCC(CCn2nc(-c3ccc(N)cc3C)c3c(N)ncnc32)CC1
EC50 [1]: 302 nM

Nc1ncnc2c1c(-c1ccc3[nH]ccc3c1)nn2CCC1CCN(S(=O)(=O)c2cc(F)cc(F)c2)CC1
EC50 [1]: > 1000 nM

COc1ccc(S(=O)(=O)N2CCC(CCn3nc(-c4ccc5[nH]ccc5c4)c4c(N)ncnc43)CC2)cc1
EC50 [1]: 132 nM

COc1ccccc1C(=O)N1CCC(CCn2nc(-c3ccc4[nH]ccc4c3)c3c(N)ncnc32)CC1
EC50 [1]: 665 nM

Nc1ncnc2c1c(-c1ccc3[nH]ccc3c1)nn2CCC1CCN(S(=O)(=O)c2cccc(Cl)c2)CC1
EC50 [1]: 1320 nM

Nc1ncnc2c1c(-c1ccc3[nH]ccc3c1)nn2CCC1CCN(S(=O)(=O)c2ccc(C(F)(F)F)cc2)CC1
EC50 [1]: 303 nM

Nc1ncnc2c1c(-c1ccc3[nH]ccc3c1)nn2CCC1CCN(C(=O)c2ccccc2)CC1
EC50 [1]: 273 nM

CC(=O)N1CCC(CCn2nc(-c3cc4cc[nH]c4cc3C)c3c(N)ncnc32)CC1
EC50 [1]: 403 nM

Nc1ncnc2c1c(-c1ccc3[nH]ccc3c1)nn2CCC1CCN(C(=O)OCc2ccccc2)CC1
EC50 [1]: > 1000 nM

CC(=O)N1CCC(CCn2nc(-c3ccc4cc[nH]c4c3)c3c(N)ncnc32)CC1
EC50 [1]: > 1000 nM

COc1cc(F)cc(-c2nn(CCC3CCN(C(C)=O)CC3)c3ncnc(N)c23)c1
EC50 [1]: 430 nM

CC(C)(C)OC(=O)N1CC(Cn2nc(-c3ccc4[nH]ccc4c3)c3c(N)ncnc32)C1
EC50 [1]: 750 nM

CC(=O)N1CCC(CCn2nc(-c3coc4ccccc34)c3c(N)ncnc32)CC1
EC50 [1]: 682 nM

Nc1ncnc2c1c(-c1ccc3[nH]ccc3c1)nn2CCC1CCN(S(=O)(=O)c2ccccc2Cl)CC1
EC50 [1]: 856 nM

Cc1cccc(-c2nn3c(c2-c2ccnc4ccc(C(N)=O)cc24)CCC3)n1 [GALUNISERTIB]
CC50 [5]: > 20000 nM
CC50 [6]: 5460 nM
CC50 at 72 h [7]: 13000 nM
CC50 [8]: > 20000 nM
CC50 at 72 h [9]: > 20000 nM
CC50 [10]: 17000 nM
CC50 [11]: > 20000 nM
CC50 [12]: 3120 nM
CC50 [13]: > 20000 nM
CC50 [14]: > 20000 nM
CC50 at 72 h [15]: 17400 nM
CC50 at 72 h [16]: 19900 nM
